Data taken from paper PMC3119665, “A New Drug Design Targeting the Adenosinergic System for Huntington's Disease” (PLoS ONE, 2011).

How the values were obtained:
[1] = system: Transporter, Monoamine; test: Radioligand binding panel (Table S1); parameters: species or system rabbit; conditions: 10 μM T1-11, n 2
[2] = system: BDNF; test: Cortical BDNF transcript, quantitative RT-PCR; type: in vivo; conditions: R6/2 mice, 0.05 mg/ml in drinking water
Procedure: Total RNA was isolated from the cortex of the indicated mice using the TriReagent kit (Molecular Research Center, Cincinnati, OH, USA), treated with RNase-free DNase (RQ1; Promega) to remove potential contamination by genomic DNA, and transcribed into complementary (c)DNA using Superscript* II reverse transcriptase. A real-time quantitative PCR was performed using a TaqMan kit (PE Applied Biosystems, Foster City, CA, USA) on a TaqMan ABI 7700 Sequence Detection System (PE Applied Biosystems) using heat-activated TaqDNA polymerase (Amplitaq Gold; PE Applied Biosystems). The PCR mixtures were incubated at 50°C for 2 min and 95°C for 10 min, and then 40 PCR cycles were conducted (95°C for 15 s and 65°C for 1 min). The sequences of primers are listed below: for BDNF (the target gene), 5′-[…]-3′ and 5′-[…]-3′; and for GAPDH (the reference gene), 5′[…]-3′ and 5′-[…]-3′. Independent reverse-transcription PCRs were performed using the same cDNA for both the indicated target gene and reference gene (GAPDH). […] Data were analyzed using ABI 7700 operating software to determine the threshold cycle (CT) above the background for each reaction. The relative transcript amount of the target gene, which was calculated using standard curves of serial RNA dilutions, was normalized to that of GAPDH of the same RNA.

[3] = biological target: T1, Muscarinic M5 (Homo sapiens, UniProt P08912); test: Radioligand binding panel (Table S1); conditions: 10 μM T1-11, n 2
T1 construct: purchased MDS Pharma Services Taiwan
T1 sequence (P08912 whole entry): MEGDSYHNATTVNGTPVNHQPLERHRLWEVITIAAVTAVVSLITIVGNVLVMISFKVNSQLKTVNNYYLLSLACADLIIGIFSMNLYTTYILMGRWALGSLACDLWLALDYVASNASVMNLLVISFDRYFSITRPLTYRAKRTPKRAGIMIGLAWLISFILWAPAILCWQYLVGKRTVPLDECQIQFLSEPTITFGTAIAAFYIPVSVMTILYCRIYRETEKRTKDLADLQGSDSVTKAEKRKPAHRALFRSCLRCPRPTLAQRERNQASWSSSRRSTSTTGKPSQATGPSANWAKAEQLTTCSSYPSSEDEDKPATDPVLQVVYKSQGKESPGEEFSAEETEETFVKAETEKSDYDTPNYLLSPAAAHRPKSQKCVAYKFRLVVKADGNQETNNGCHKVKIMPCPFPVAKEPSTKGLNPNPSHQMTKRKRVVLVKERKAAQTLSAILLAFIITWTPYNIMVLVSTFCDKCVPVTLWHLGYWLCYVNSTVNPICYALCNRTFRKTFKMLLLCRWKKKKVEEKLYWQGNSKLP

[4] = biological target: T2, Interleukin IL-6 (Homo sapiens, UniProt P08887); test: Radioligand binding panel (Table S1); conditions: 10 μM T1-11, n 2
T2 construct: purchased MDS Pharma Services Taiwan
T2 sequence (P08887 20-468): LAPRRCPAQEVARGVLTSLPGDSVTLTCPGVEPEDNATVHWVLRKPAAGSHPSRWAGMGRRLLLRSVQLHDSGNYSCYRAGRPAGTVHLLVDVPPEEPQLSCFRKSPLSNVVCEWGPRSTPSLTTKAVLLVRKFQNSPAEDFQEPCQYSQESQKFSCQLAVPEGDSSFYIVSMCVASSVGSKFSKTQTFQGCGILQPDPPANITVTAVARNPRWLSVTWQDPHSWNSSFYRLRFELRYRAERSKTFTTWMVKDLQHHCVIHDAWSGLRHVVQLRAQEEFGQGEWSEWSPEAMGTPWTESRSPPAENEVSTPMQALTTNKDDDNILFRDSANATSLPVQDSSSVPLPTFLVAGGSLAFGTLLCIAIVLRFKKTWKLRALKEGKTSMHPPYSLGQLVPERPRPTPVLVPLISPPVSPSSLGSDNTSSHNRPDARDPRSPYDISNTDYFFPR

[5] = biological target: T3, Dopamine D2L (Homo sapiens, UniProt P14416); test: Radioligand binding panel (Table S1); conditions: 10 μM T1-11, n 2
T3 construct: purchased MDS Pharma Services Taiwan

[6] = biological target: T4, Somatostatin sst1 (Homo sapiens, UniProt P30872); test: Radioligand binding panel (Table S1); conditions: 10 μM T1-11, n 2
T4 construct: purchased MDS Pharma Services Taiwan
T4 sequence (P30872 whole entry): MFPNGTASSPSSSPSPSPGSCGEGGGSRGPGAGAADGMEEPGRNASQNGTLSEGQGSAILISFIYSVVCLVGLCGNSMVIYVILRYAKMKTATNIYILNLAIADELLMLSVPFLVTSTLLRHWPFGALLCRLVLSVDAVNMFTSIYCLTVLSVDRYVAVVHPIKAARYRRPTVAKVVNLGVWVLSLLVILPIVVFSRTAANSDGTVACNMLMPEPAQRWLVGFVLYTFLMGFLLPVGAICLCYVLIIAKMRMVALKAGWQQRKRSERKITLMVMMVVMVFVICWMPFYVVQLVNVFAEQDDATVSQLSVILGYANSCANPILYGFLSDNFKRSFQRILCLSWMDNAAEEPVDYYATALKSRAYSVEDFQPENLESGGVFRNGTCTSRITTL

[7] = system: Muscarinic, Oxotremorine-M; test: Radioligand binding panel (Table S1); parameters: species or system rat; conditions: 10 μM T1-11, n 2
[8] = biological target: T5, G Protein-Coupled Receptor, GPR8 (Homo sapiens, UniProt P48146); test: Radioligand binding panel (Table S1); conditions: 10 μM T1-11, n 2
T5 construct: purchased MDS Pharma Services Taiwan
T5 sequence (P48146 whole entry): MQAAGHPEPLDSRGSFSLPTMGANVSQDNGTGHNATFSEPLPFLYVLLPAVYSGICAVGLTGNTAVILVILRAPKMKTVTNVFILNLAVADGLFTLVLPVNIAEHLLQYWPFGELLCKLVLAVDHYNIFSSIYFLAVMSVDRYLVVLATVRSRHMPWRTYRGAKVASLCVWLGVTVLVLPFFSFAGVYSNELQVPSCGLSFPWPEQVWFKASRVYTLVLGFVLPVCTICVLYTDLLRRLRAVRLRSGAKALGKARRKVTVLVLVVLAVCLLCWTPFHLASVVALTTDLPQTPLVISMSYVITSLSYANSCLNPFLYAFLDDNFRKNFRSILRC

[9] = biological target: T6, Chemokine CCR2B (Homo sapiens, UniProt P41597); test: Radioligand binding panel (Table S1); conditions: 10 μM T1-11, n 2
T6 construct: purchased MDS Pharma Services Taiwan
T6 sequence (P41597 1-360 isoform P41597-2): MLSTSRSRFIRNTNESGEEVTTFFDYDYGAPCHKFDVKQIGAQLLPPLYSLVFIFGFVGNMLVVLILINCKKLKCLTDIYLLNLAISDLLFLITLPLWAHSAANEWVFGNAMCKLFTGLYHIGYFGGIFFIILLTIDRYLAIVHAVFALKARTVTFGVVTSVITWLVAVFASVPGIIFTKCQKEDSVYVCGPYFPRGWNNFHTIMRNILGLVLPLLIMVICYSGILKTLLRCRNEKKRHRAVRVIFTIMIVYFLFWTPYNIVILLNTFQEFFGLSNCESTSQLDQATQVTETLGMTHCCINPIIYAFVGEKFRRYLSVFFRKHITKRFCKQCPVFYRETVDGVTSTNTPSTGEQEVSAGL

[10] = biological target: T7, Platelet Activating Factor (PAF) (Homo sapiens, UniProt P25105); test: Radioligand binding panel (Table S1); conditions: 10 μM T1-11, n 2
T7 construct: purchased MDS Pharma Services Taiwan
T7 sequence (P25105 whole entry): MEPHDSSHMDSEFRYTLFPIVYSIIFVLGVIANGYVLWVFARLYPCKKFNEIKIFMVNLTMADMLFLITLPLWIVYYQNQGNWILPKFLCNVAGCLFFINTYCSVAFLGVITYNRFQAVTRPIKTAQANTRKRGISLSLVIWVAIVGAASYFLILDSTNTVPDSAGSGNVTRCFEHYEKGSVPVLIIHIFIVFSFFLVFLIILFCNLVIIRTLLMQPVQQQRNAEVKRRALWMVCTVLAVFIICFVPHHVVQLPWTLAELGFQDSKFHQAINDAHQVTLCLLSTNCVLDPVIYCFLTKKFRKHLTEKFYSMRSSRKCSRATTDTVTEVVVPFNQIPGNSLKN

[11] = system: GABAA, Non-Selective; test: Radioligand binding panel (Table S1); parameters: species or system rat; conditions: 10 μM T1-11, n 2
[12] = biological target: T8, Calcium Channel N-Type (Rattus norvegicus, UniProt Q02294); test: Radioligand binding panel (Table S1); conditions: 10 μM T1-11, n 2
T8 construct: purchased MDS Pharma Services Taiwan

[13] = biological target: T9, Sigma σ1 (Homo sapiens, UniProt Q99720); test: Radioligand binding panel (Table S1); conditions: 10 μM T1-11, n 2
T9 construct: purchased MDS Pharma Services Taiwan
T9 sequence (Q99720 whole entry): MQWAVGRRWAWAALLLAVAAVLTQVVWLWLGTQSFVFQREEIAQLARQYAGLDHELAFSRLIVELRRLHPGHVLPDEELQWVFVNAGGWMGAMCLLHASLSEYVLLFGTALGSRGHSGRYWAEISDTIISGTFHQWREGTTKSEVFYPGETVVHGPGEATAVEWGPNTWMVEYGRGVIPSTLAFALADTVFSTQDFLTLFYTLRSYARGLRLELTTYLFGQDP

[14] = biological target: T10, Melatonin MT1 (Homo sapiens, UniProt P48039); test: Radioligand binding panel (Table S1); conditions: 10 μM T1-11, n 2
T10 construct: purchased MDS Pharma Services Taiwan
T10 sequence (P48039 whole entry): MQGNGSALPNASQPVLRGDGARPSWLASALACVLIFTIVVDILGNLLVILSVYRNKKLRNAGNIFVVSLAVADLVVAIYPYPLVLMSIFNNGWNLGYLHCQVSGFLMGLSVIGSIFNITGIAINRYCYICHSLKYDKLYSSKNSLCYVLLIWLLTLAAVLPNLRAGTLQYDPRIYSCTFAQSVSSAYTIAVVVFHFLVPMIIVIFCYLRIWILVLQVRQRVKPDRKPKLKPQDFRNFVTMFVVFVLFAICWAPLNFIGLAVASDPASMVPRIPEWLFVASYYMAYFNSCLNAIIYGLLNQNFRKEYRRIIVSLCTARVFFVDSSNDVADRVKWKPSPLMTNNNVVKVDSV

[15] = system: Adrenergic β, Non-Selective; test: Radioligand binding panel (Table S1); parameters: species or system rat; conditions: 10 μM T1-11, n 2
[16] = biological target: T11, Dopamine D1 (Homo sapiens, UniProt P21728); test: Radioligand binding panel (Table S1); conditions: 10 μM T1-11, n 2
T11 construct: purchased MDS Pharma Services Taiwan

[17] = biological target: T12, Chemokine CXCR2 (IL-8RB) (Homo sapiens, UniProt P25025); test: Radioligand binding panel (Table S1); conditions: 10 μM T1-11, n 2
T12 construct: purchased MDS Pharma Services Taiwan
T12 sequence (P25025 whole entry): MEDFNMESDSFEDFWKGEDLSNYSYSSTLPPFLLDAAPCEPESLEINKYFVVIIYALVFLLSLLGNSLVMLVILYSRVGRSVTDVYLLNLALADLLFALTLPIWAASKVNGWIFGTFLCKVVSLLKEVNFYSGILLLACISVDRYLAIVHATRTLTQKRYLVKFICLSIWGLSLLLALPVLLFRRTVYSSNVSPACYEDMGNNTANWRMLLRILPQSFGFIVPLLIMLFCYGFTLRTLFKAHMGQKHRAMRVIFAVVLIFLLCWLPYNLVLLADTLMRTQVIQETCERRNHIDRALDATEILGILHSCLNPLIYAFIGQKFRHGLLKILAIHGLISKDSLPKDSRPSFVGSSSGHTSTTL

[18] = system: Adrenergic α 2, Non-Selective; test: Radioligand binding panel (Table S1); parameters: species or system rat; conditions: 10 μM T1-11, n 2
[19] = biological target: T13, Endothelin ETA (Homo sapiens, UniProt P25101); test: Radioligand binding panel (Table S1); conditions: 10 μM T1-11, n 2
T13 construct: purchased MDS Pharma Services Taiwan

[20] = biological target: T14, Tachykinin NK2 (Homo sapiens, UniProt P21452); test: Radioligand binding panel (Table S1); conditions: 10 μM T1-11, n 2
T14 construct: purchased MDS Pharma Services Taiwan
T14 sequence (P21452 whole entry): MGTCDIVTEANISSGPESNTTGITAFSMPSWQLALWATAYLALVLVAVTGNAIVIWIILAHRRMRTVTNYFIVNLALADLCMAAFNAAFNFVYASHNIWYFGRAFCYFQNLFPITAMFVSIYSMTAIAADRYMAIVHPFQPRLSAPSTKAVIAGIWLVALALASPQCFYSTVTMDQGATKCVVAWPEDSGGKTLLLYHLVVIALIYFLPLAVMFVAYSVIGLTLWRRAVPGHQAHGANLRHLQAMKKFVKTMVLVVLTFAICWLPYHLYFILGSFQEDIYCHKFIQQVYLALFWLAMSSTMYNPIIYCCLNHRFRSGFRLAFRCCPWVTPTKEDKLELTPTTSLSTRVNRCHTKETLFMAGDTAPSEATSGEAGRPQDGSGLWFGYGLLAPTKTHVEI

[21] = biological target: T15, Galanin GAL2 (Homo sapiens, UniProt O43603); test: Radioligand binding panel (Table S1); conditions: 10 μM T1-11, n 2
T15 construct: purchased MDS Pharma Services Taiwan
T15 sequence (O43603 whole entry): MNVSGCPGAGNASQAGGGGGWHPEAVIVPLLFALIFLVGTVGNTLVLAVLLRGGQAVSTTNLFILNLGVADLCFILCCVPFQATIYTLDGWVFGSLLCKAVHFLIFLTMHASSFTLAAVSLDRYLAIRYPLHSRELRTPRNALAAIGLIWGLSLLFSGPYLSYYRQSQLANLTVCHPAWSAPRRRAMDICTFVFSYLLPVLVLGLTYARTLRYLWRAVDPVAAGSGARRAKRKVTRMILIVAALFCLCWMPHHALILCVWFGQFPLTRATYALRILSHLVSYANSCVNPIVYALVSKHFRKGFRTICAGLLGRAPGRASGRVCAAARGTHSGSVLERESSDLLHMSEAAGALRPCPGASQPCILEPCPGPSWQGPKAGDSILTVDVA

[22] = biological target: T16, Adrenergic α 1B (Rattus norvegicus, UniProt P15823); test: Radioligand binding panel (Table S1); conditions: 10 μM T1-11, n 2
T16 construct: purchased MDS Pharma Services Taiwan

[23] = biological target: T17, Opiate δ (OP1, DOP) (Homo sapiens, UniProt P41143); test: Radioligand binding panel (Table S1); conditions: 10 μM T1-11, n 2
T17 construct: purchased MDS Pharma Services Taiwan

[24] = biological target: T18, Cannabinoid CB1 (Homo sapiens, UniProt P21554); test: Radioligand binding panel (Table S1); conditions: 10 μM T1-11, n 2
T18 construct: purchased MDS Pharma Services Taiwan
T18 sequence (P21554 whole entry): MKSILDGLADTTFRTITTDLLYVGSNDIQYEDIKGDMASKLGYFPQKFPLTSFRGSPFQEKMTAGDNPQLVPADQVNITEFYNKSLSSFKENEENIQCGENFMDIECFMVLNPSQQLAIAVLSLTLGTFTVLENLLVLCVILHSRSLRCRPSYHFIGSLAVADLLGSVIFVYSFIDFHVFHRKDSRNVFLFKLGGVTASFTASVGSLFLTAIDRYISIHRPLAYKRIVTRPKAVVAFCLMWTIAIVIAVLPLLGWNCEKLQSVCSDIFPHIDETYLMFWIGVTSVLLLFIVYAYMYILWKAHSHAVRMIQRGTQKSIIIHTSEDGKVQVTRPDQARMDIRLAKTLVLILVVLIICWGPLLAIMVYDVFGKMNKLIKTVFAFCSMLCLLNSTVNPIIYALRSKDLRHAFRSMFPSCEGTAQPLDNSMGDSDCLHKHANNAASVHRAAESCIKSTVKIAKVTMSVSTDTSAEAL

[25] = system: chymotrypsin-like activity of the proteasome; test: Proteasome activity assay, striatal synaptosomes; type: in vivo; conditions: R6/2 mice, 12 weeks old, 0.05 mg/ml in drinking water
Procedure: The chymotrypsin-like activity of the proteasome was determined using a specific proteasome substrate [succinyl (suc)-Leu-Leu-Val-Tyr-7-amino-4-methyl coumarin (AMC)] (Sigma-Aldrich, St Louis, MO, USA) as described earlier. In brief, the synaptosome-enriched fraction (10 µg) were incubated with the substrate (40 µM) in 100 µl of proteasome assay buffer [0.05 M Tris-HCl (pH 8.0), 0.5 mM EDTA, 1 mM ATP, and 1 mM DTT] at 37°C for 60 min where the relationship between the incubation time and product formation remained linear. The fluorescence of the released AMC was detected using a Fluorescence Microplate Reader System (Device, Sunnyvale, CA, USA) at 380-nm excitation and 460-nm emission wavelengths.

[26] = biological target: T19, A3 adenosine receptor (Homo sapiens, UniProt P0DMS8); test: Radioligand binding assay
T19 construct: host or cells: CHO-K1
T19 sequence (P0DMS8 1-318): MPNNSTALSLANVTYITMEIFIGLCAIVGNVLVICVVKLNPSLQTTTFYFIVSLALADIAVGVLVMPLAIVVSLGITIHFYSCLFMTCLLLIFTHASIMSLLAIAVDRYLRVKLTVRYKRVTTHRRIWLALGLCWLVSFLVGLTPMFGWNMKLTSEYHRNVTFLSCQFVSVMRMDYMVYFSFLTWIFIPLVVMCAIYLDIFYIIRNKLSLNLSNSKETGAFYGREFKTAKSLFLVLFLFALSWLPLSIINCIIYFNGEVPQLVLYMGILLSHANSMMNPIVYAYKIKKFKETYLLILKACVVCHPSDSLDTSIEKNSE

[27] = CHO-K1 membranes, 3H-AB-MECA 0.5 nM

OC[C@H]1O[C@@H](n2cnc3c(NCc4ccc(O)cc4)ncnc32)[C@H](O)[C@@H]1O [T1-11, N ^6-(4-hydroxybenzyl)adenine riboside] was tested, and the “% Inhibition” value [1] was -6%, the “Cortical BDNF” value [2] was “contained more cortical BDNF than R6/2 mice that received no treatment” and the inhibition at 10 µM [3] was 0%. The inhibition at 10 µM [4] was -3%, the inhibition at 10 µM [5] was 13% and the inhibition at 10 µM [6] was -3%. For the same compound, the “% Inhibition” value [7] was -7%, the inhibition at 10 µM [8] was 15% and the inhibition at 10 µM [9] was 0%. For the same compound, the inhibition at 10 µM [10] was 7%, the “% Inhibition” value [11] was 5% and the inhibition at 10 µM [12] was 1%. For the same compound, the inhibition at 10 µM [13] was 7%, the inhibition at 10 µM [14] was -4% and the “% Inhibition” value [15] was 10%. For the same compound, the inhibition at 10 µM [16] was -13%, the inhibition at 10 µM [17] was 0% and the “% Inhibition” value [18] was 2%. The inhibition at 10 µM [19] was 3%, the inhibition at 10 µM [20] was 3% and the inhibition at 10 µM [21] was 0%. For the same compound, the inhibition at 10 µM [22] was 3%, the inhibition at 10 µM [23] was 19% and the inhibition at 10 µM [24] was -7%. For the same compound, the “Chymotrypsin-like activity in striatal synaptosome fractions” value [25] was “significantly enhanced chymotrypsin-like activity in the HD striatum”, the inhibition at 10 µM ([26]; 10 μM T1-11, n 2) was 103% and the IC50 [26, 27] was 110 nM. It also gave a Ki [26, 27] of 100 nM.
